Source: patent US20210284638A1 (Saint Louis University, priority 2018, published 2021)
Structures can show the parent of a compound that is named as a salt.

How the values were obtained:
Assay type in all cases: binding
[1] = target: T1, Recombinant human integrin αVβ5 (Homo sapiens, UniProt P06756+P18084); assay: Solid Phase Receptor Assay (SPRA) for αVβ5 function; conditions: plate-bound human vitronectin
T1 construct: purchased R&D Systems 2528-AV

[2] = target: T2, Recombinant human integrin αvβ1 (Homo sapiens, UniProt P05556+P06756); assay: Solid Phase Receptor Assay (SPRA) for αVβ1 function; conditions: plate-bound human fibronectin
T2 construct: purchased R&D Systems 6579-AV

[3] = target: T3, Recombinant human integrin αVβ8 (Homo sapiens, UniProt P06756+P26012); assay: Solid Phase Receptor Assay for αVβ8 function; conditions: plate-bound human LAP; read-out: αVβ8 SPRA IC50
T3 construct: purchased R&D Systems 4135-AV

[4] = target: T4, Recombinant human integrin α5β1 (Homo sapiens, UniProt P05556+P08648); assay: Solid Phase Receptor Assay (SPRA) for α5β1 function; conditions: plate-bound human fibronectin
T4 construct: purchased R&D Systems 3230-A5
T4 sequence (P08648 42-995 limits assumed): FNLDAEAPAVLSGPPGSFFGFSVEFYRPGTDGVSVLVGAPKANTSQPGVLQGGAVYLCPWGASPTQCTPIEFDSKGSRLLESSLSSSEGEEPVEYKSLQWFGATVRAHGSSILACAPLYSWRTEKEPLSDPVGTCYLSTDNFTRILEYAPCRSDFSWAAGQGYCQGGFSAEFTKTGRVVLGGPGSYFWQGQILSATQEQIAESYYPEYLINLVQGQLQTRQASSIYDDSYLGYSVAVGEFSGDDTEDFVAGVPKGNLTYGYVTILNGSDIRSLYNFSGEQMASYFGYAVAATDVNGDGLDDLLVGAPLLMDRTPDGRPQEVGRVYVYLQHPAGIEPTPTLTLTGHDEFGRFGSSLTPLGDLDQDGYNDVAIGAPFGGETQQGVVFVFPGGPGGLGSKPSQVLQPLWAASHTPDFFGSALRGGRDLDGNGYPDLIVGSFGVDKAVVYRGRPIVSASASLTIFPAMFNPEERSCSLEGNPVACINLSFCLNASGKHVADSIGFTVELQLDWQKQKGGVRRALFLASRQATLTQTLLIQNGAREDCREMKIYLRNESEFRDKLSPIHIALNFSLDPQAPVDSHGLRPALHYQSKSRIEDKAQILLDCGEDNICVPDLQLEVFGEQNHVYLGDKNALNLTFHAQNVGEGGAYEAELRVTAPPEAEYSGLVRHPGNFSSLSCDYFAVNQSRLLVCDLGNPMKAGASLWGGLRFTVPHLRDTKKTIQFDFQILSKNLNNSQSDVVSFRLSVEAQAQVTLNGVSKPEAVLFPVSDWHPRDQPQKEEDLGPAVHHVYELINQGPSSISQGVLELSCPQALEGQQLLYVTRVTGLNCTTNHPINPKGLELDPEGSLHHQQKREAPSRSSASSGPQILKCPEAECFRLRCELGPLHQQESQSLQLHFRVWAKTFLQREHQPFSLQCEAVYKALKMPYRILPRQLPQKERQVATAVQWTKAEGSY
T4 sequence (P05556 21-728 limits assumed): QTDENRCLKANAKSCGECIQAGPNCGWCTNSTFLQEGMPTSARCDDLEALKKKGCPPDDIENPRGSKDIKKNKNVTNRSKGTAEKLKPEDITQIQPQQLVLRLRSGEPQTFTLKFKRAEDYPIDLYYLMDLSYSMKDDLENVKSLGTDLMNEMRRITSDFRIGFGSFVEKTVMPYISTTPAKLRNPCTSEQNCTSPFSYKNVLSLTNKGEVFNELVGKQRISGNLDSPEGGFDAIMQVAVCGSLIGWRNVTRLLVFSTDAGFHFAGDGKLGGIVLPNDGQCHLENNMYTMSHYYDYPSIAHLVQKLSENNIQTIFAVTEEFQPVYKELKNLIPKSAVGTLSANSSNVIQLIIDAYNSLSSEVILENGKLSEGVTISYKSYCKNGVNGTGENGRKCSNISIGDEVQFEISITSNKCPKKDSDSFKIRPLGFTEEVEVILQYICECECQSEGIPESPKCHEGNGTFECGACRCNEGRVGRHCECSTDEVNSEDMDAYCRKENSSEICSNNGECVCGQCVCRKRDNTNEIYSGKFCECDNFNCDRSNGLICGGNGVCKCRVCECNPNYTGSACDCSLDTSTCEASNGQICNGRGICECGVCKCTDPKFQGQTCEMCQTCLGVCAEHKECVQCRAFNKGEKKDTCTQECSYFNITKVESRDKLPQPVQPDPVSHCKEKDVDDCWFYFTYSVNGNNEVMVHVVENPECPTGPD

T2 sequence (P06756 31-992 limits assumed): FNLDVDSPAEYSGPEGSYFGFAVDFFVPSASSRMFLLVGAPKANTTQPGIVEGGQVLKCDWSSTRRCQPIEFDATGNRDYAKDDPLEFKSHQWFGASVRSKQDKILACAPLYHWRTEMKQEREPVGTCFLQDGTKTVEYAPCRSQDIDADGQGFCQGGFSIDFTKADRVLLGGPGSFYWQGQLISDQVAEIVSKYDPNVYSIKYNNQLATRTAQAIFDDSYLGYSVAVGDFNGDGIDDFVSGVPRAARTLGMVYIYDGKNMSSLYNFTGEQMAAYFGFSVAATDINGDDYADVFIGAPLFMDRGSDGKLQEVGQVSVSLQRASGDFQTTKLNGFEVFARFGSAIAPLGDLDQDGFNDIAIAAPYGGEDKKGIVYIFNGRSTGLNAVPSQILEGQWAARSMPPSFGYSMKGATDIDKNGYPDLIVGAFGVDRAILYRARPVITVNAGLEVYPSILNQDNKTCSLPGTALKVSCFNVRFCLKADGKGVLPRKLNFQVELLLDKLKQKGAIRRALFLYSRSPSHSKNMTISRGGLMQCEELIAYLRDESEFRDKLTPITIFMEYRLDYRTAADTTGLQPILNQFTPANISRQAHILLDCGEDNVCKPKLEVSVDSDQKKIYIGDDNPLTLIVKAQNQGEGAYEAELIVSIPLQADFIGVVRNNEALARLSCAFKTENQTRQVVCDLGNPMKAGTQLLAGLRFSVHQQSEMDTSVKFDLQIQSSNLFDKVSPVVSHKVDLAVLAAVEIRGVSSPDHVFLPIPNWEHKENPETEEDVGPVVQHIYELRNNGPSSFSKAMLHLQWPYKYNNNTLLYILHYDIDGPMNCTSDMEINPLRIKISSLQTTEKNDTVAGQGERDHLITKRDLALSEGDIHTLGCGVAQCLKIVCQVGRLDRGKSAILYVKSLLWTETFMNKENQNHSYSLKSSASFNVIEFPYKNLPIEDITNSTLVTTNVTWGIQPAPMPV
T2 sequence (P05556 21-728 limits assumed): as the sequence (P05556 21-728 limits assumed) above
T3 sequence (P06756 31-992 limits assumed): as the sequence (P06756 31-992 limits assumed) above
T3 sequence (P26012 43-684 limits assumed): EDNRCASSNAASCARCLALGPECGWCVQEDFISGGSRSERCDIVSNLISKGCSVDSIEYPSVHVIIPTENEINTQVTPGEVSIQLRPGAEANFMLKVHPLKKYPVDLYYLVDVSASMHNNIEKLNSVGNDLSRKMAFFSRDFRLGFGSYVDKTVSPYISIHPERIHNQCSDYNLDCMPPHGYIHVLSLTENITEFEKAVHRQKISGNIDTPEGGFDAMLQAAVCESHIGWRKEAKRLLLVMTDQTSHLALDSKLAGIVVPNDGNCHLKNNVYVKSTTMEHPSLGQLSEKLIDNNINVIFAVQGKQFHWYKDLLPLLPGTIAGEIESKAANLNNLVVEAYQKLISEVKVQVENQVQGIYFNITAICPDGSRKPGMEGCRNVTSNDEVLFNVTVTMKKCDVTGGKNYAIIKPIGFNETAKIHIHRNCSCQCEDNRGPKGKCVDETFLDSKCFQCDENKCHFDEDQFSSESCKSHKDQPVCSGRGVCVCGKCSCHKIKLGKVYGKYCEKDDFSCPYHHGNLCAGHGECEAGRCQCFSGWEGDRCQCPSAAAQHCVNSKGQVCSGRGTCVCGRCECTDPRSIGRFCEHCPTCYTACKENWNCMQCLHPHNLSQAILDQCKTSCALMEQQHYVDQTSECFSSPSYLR
T1 sequence (P06756 31-992 limits assumed): as the sequence (P06756 31-992 limits assumed) above
T1 sequence (P18084 24-719 limits assumed): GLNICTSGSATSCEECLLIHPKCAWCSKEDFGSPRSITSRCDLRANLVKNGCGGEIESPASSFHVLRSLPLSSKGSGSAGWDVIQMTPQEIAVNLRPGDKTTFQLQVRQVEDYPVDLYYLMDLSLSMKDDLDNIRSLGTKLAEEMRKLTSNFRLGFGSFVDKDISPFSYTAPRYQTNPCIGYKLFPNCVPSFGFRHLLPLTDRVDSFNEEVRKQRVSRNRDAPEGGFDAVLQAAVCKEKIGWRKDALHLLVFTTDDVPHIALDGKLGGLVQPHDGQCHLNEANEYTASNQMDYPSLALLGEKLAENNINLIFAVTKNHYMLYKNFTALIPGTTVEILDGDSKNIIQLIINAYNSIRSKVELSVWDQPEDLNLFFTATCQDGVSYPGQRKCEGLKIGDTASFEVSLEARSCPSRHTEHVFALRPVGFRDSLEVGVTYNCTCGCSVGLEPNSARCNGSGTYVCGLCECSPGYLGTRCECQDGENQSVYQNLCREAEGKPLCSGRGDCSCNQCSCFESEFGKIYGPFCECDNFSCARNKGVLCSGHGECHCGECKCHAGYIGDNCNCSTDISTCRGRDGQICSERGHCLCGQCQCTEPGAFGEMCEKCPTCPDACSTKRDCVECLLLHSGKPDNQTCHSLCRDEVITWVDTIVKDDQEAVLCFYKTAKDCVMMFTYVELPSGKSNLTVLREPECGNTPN

Structure (SMILES)	IC50 [1] [nM]	IC50 [2] [nM]	IC50 [3] [nM]	IC50 [4] [nM]
COc1ccc(C2=CCOCC2)cc1[C@@H](CC(=O)O)Cc1csc(CCCc2ccc3c(n2)NCCC3)n1 [Example 37B, (R)-3-(5-(3,6-dihydro-2H-pyran-4-yl)-2-methoxyphenyl)-4-(2-(3-(5,6,7,8-tetrahydro-1,8-naphthyridin-2-yl)propyl)thiazol-4-yl)butanoic acid trifluoroacetate]	62	190	5600	2800
Cc1cc(C)n(-c2cccc(C(CC(=O)O)Cc3csc(CCc4ccc5c(n4)NCCC5)n3)c2)n1 (centres unmarked) [Example 38, 3-(3-(3,5-dimethyl-1H-pyrazol-1-yl)phenyl)-4-(2-(2-(5,6,7,8-tetrahydro-1,8-naphthyridin-2-yl)ethyl)thiazol-4-yl)butanoic acid]	0.7	15	2700	420
CC(C)(C)c1cc(C(CC(=O)O)Cc2cc(OCCc3ccc4c(n3)NCCC4)n(CC(F)(F)F)n2)cc(C(C)(C)C)c1 (centres unmarked) [Example 40, 3-(3,5-di-tert-butylphenyl)-4-(5-(2-(5,6,7,8-tetrahydro-1,8-naphthyridin-2-yl)ethoxy)-1-(2,2,2-trifluoroethyl)-1H-pyrazol-3-yl)butanoic acid trifluoroacetate]	180	3	30	6
Cn1nc(CC(CC(=O)O)c2cc(C(C)(C)C#N)cc(C(C)(C)C#N)c2)cc1OCCc1ccc2c(n1)NCCC2 (centres unmarked) [Example 41, 3-(3,5-bis(2-cyanopropan-2-yl)phenyl)-4-(1-methyl-5-(2-(5,6,7,8-tetrahydro-1,8-naphthyridin-2-yl)ethoxy)-1H-pyrazol-3-yl)butanoic acid trifluoroacetate]	5	1	1	0.3
COc1ccc(C2=CCOCC2)cc1C(CC(=O)O)Cc1cc(OCCc2ccc3c(n2)NCCC3)n(C)n1 (centres unmarked) [Example 42]	14	2	41	10
COc1ccc(C2CCOCC2)cc1C(CC(=O)O)Cc1csc(CCCc2ccc3c(n2)NCCC3)n1 (centres unmarked) [Example 43, 3-(2-methoxy-5-(tetrahydro-2H-pyran-4-yl)phenyl)-4-(2-(3-(5,6,7,8-tetrahydro-1,8-naphthyridin-2-yl)propyl)thiazol-4-yl)butanoic acid]	61	3	210	65
COc1ccc(C(CC(=O)O)Cc2cc(OCCc3ccc4c(n3)NCCC4)n(C)n2)cc1F (centres unmarked) [Example 44, 3-(3-fluoro-4-methoxyphenyl)-4-(1-methyl-5-(2-(5,6,7,8-tetrahydro-1,8-naphthyridin-2-yl)ethoxy)-1H-pyrazol-3-yl)butanoic acid]	0.22	3.2	80	47
COCC1(c2ccc(OC)c(C(CC(=O)O)Cc3cc(OCCc4ccc5c(n4)NCCC5)n(C)n3)c2)CCOCC1 (centres unmarked) [Example 45, 3-(2-methoxy-5-(4-(methoxymethyl)tetrahydro-2H-pyran-4-yl)phenyl)-4-(1-methyl-5-(2-(5,6,7,8-tetrahydro-1,8-naphthyridin-2-yl)ethoxy)-1H-pyrazol-3-yl)butanoic acid]	1200	2.2	1000	13
COc1ccc(C2CCOCC2)cc1C(CC(=O)O)Cc1cc(OCCc2ccc3c(n2)NCCC3)n(C)n1 (centres unmarked) [Example 46, 3-(2-methoxy-5-(tetrahydro-2H-pyran-4-yl)phenyl)-4-(1-methyl-5-(2-(5,6,7,8-tetrahydro-1,8-naphthyridin-2-yl)ethoxy)-1H-pyrazol-3-yl)butanoic acid]	87	2.8	250	16
Cn1nc(C[C@@H](CC(=O)O)c2cc3c(c(C(C)(C)C)c2)OCO3)cc1OCCc1ccc2c(n1)NCCC2 [Example 47]	0.067	0.92	34	6.2
COCC1(c2ccc(OC)c([C@H](CC(=O)O)Cc3cc(OCCc4ccc5c(n4)NCCC5)n(C)n3)c2)CCOCC1 [Example 48, (S)-3-(2-methoxy-5-(4-(methoxymethyl)tetrahydro-2H-pyran-4-yl)phenyl)-4-(1-methyl-5-(2-(5,6,7,8-tetrahydro-1,8-naphthyridin-2-yl)ethoxy)-1H-pyrazol-3-yl)butanoic acid]	770	2.4	540	9.7
